{"source": "patent US11492351B2", "about": "“MTA-cooperative PRMT5 inhibitors” (Mirati Therapeutics, Inc., priority 2019, dated 2022)", "key": {"[1]": {"molecular_target": "T1, PRMT5/MEP50 complex (Homo sapiens (Human), UniProt O14744)", "T1 sequence (O14744 whole entry)": "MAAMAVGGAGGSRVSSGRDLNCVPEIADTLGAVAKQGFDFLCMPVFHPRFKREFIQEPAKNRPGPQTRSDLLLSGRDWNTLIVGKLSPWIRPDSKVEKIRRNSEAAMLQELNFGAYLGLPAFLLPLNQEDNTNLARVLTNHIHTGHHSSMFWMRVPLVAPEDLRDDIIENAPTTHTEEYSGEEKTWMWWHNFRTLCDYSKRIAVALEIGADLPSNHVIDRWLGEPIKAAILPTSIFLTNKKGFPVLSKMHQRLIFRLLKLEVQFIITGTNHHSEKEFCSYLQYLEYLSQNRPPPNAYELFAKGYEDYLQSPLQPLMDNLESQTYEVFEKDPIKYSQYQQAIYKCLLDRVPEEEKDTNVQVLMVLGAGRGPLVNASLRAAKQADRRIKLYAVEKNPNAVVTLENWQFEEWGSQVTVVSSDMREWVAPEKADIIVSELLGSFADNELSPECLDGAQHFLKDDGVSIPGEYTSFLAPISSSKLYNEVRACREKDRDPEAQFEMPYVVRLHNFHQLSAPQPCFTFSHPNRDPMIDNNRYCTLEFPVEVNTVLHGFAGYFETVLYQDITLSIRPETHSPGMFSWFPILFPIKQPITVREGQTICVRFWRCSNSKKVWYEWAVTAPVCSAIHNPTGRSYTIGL", "T1 sequence (Q9BQA1 whole entry partner)": "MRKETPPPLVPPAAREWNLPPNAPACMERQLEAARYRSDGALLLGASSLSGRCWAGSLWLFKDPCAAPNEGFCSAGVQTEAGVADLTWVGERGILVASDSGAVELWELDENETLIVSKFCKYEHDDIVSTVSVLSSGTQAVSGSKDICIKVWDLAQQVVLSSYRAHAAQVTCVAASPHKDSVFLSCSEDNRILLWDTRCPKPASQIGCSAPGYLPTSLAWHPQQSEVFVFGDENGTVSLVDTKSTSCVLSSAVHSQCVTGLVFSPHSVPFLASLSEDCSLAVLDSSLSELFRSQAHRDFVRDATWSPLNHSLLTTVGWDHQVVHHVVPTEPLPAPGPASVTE", "assay": "PRMT5:MEP50 FlashPlate Assay (histone H4 peptide, plus and minus MTA)", "type": "biochemical", "protocol": "(§1) The PRMT5 inhibitory activity of compounds of the present invention was determined using either a PRMT5:MEP50 FlashPlate Assay (Reaction Biology Corporation) or a PRMT5:MEP50 HotSpot Assay (Reaction Biology Corporation).\n1. PRMT5:MEP50 FlashPlate Assay"}, "[2]": {"molecular_target": "T1, PRMT5/MEP50 complex", "assay": "PRMT5:MEP50 HotSpot Assay (full-length histone H2A, plus and minus MTA)", "type": "biochemical", "protocol": "as §1\nThe assay uses recombinant full-length histone H2A as the PRMT5 substrate. […] The reaction was stopped and transferred to filter paper for detection. The amount of tritiated H2A in each sample was determined using a scintillation counter."}, "[3]": {"details": "in the absence of MTA, read-out: IC50"}, "[4]": {"details": "read-out: IC50 + 2 μM MTA, in the presence of 2 μM MTA"}}}
{"smiles": "Cc1cc2c(=O)[nH]nc(CN)c2cc1-c1cncc(C#N)c1", "note": "[Example 3-38]", "values": [{"measurement": "IC50", "setting": "[1]; [3]", "value": 4.94, "unit": "µM"}, {"measurement": "IC50", "setting": "[1]; [4]", "value": 0.37, "unit": "µM"}]}
{"smiles": "Cn1ncc(-c2ccc3c(=O)[nH]nc(CN)c3c2)c1-c1ccccc1C#N", "note": "[Example 4-100, 2-(4-(4-(aminomethyl)-1-oxo-1,2-dihydrophthalazin-6-yl)-1-methyl-1H-pyrazol-5-yl)benzonitrile]", "values": [{"measurement": "IC50", "setting": "[2]; [3]", "value": "> 10", "unit": "µM"}]}
{"smiles": "Cc1nc2cncc(-c3ccc4c(=O)[nH]nc(CN)c4c3)c2o1", "note": "[Example 4-110, 4-(aminomethyl)-6-(2-methyloxazolo[4,5-c]pyridin-7-yl)phthalazin-1(2H)-one]", "values": [{"measurement": "IC50", "setting": "[1]; [3]", "value": "> 100", "unit": "µM"}]}
{"smiles": "Cn1ncc(-c2ccc3c(=O)[nH]nc([C@H](N)C(F)F)c3c2)c1-c1ccc2ccccc2c1C#N", "note": "[Example 9-6, 2-[4-[4-[(1S)-1-amino-2,2-difluoro-ethyl]-1-oxo-2H-phthalazin-6-yl]-2-methyl-pyrazol-3-yl]naphthalene-1-carbonitrile]", "values": [{"measurement": "IC50", "setting": "[2]; [4]", "value": "> 10", "unit": "µM"}]}
